{
  "source": "patent US12290496B2",
  "about": "“Compounds for use in preventing or treating athlete overtraining” (TDELTAS LIMITED, priority 2018, dated 2025)",
  "key": {"[1]": {"assay": "Circulating (R)-3-hydroxybutyrate levels and gut uptake after consumption of esters", "assay_type": "in vivo"}, "[2]": {"assay": "DXA scanning before and after 3-week training period (FIG. 6)", "assay_type": "in vivo, human", "conditions": "3-week training overload period", "experimental": "(§1) A randomized placebo-controlled (ketone ester versus placebo) intervention study was performed. The study involved a pretest and a posttest with a 3-week training overload period in between (Table 1A). During this 3-week period, subjects received either ketone ester or an isocaloric placebo (long chain triglyceride) after each training session and 30 minutes before sleep. The conditions were blinded to both the subjects and the investigators until completion of all the experiments.\n(§2) Immediately following each training session and 30 min before sleep, subjects received a recovery drink (6D Recovery Shake, Medix, Oudenaarde, Belgium) containing 1 g carbohydrates per kg body weight, plus 0.35 g whey protein isolate per kg body weight. Additionally, subjects received 0.35 g per kg body weight of a ketone ester drink or an isocaloric placebo (PL; long chain triglycerides) as a separate drink to be ingested together with the carbohydrate/protein recovery drink. The ketone ester supplement (ΔG®) delivered pure D-β-hydroxybutyrate-R 1,3 butanediol monoester. These nutritional supplements have been extensively tested before (see for instance Cox et al; Cell Metab 24: 256-268, 2016)."}, "[3]": {"assay": "30-minute time trial after 2 h submaximal constant-load exercise bout, day 18 (FIG. 3)", "assay_type": "in vivo, human", "experimental": "as §1, §2\nFIG. 3 illustrates the 30 minute time trial performance results at the end of a 120 minute constant-load endurance training session at day 18 of the training period. […]"}, "[4]": {"assay": "Food (energy) intake during 3-week training period (FIG. 7)", "assay_type": "in vivo, human", "conditions": "placebo energy intake stable", "experimental": "as §1, §2"}, "[5]": {"conditions": "acute ingestion, elite cyclists; cited from earlier work"}, "[6]": {"assay": "Peak heart rate during 90 second all-out isokinetic sprint (FIG. 4)", "assay_type": "in vivo, human", "conditions": "90 second all-out isokinetic sprints, 3-week training overload period", "experimental": "as §1, §2\nFIG. 4A gives the absolute values, and FIG. 4B gives the decrease in heart rate (Δ) from the pre-test values. […]"}, "[7]": {"assay": "Blood ketone (β-hydroxybutyrate) levels during 3-week training overload study (FIG. 1)", "assay_type": "in vivo, human", "conditions": "30 minutes following ingestion; days 6, 13 and 20", "experimental": "as §1\nas §2, with “The ketone ester supplement (ΔG®) delivered pure D-β-hydroxybutyrate-R 1,3 butanediol monoester. These nutritional supplements have been extensively tested before (see for instance Cox et al; Cell Metab 24: 256-268, 2016).” left out\nFurthermore, during TT30min small capillary blood samples (5 μl) were collected at 5-min time intervals via a small puncture in the earlobe. These microsamples were immediately analyzed for blood lactate concentration (Lactate Pro®, Arkray, Kyoto, Japan), blood glucose and βHB levels (GlucoMen Lx plus-meter with Lx glucose or Lx β-ketone strips, Menarini Diagnostics, Firenze, Italy). […]"}, "noradrenaline": {"system": "noradrenaline", "assay": "Urinary total nocturnal noradrenaline excretion (FIG. 9b)", "assay_type": "in vivo, human", "conditions": "before and during 3-week overreaching/overtraining period; consistently elevated in placebo", "experimental": "as §1, §2\nTotal nocturnal urine (10 pm to 8 am) was collected during the night before each experimental session in flasks prepared with 10 ml hydrochloric acid. […]"}, "leptin": {"system": "leptin", "assay": "Leptin levels in fasted plasma samples (FIG. 8)", "assay_type": "in vivo, human", "experimental": "as §1, §2\nBlood samples (2×5 ml) were taken from an arm vein by use of the Venoject® system into BD Vacutainer® tubes. […]"}, "[8]": {"assay": "Training volume / work per week and per session (FIG. 10, 11)", "assay_type": "in vivo, human", "experimental": "Following the pre-test, participants were enrolled in a 3-week supervised and fully-controlled exercise training program. Each week of the training program consisted of six training days with an interval training in the morning and an endurance training in the evening, for a total of twelve training sessions per week (Table 2).\nThe number of maximal sprints in the HIIT sessions increased from 4 in week 1, to 5 in week 2 and 6 in the final week. Endurance sessions were performed in the evening and consisted of 150 min of cycling at 65% VO2max. During the 3-week training period the subjects abstained from any exercise other than the exercise prescribed by the study protocol.\nas §2"}, "[9]": {"assay": "Submaximal heart rate during first 5 minutes of 30-min time trial (FIG. 5)", "assay_type": "in vivo, human", "conditions": "3-week training overload period", "experimental": "as §1\nFor the first experimental session, after a 10-min warming up (5 min at 100 W, plus 5 min at 150 W), the subjects performed a TT30min. During the first 5 minutes (t0-t5), the workload was set equal to the mean power output achieved during the TT30min in the last familiarization session. From t5 to t25, the subjects adjusted the workload at 5-min intervals according to their subjective perception of fatigue. From t25 to t30, 1-min adjustments were allowed so as to be able to establish full exhaustion by the end of the TT. Immediately after completion of the TT, subjects (1) scored the rate of perceived exertion on a 15-point Borg scale and completed a gastrointestinal symptom questionnaire. Following 15 min of active recovery (cycling @ 50 W), subjects performed a W30s. One day later, the subjects returned to the laboratory for the second experimental session. During this session a VO2max test was performed. […]"}, "[10]": {"assay": "30-minute simulated cycling time trial (TT30min) performance (FIG. 2)", "assay_type": "in vivo, human", "experimental": "as §1\nThree weeks prior to the start of the study, subjects underwent a sport medical screening by a certified sports physician. One week later, the subjects participated in three familiarization sessions (Table 1B) to get familiar with the experimental procedures. […] Respiratory gas exchange was measured continuously during the test (Cortex Metalyzer II, Leipzig, Germany), and the highest oxygen uptake measured over a 30-s period defined as the maximal oxygen uptake (VO2max). […]\nFor the first experimental session, after a 10-min warming up (5 min at 100 W, plus 5 min at 150 W), the subjects performed a TT30min. […] Immediately after completion of the TT, subjects (1) scored the rate of perceived exertion on a 15-point Borg scale and completed a gastrointestinal symptom questionnaire. […]"}},
  "data": [
    {"compound": "(R)-3-hydroxybutyrate-glycerol partial ester", "values": [
      {"measurement": "circulating levels of (R)-3-hydroxybutyrate in the blood", "setting": "[1]; upon consumption of a drink", "value": "high circulating levels"},
      {"measurement": "level of uptake in the gut", "setting": "[1]; upon consumption of a drink", "value": "surprisingly high level of uptake"}
    ]},
    {"compound": "C[C@@H](O)CCOC(=O)C[C@@H](C)O", "note": "[ketone ester, (R)-3-hydroxybutyl (R)-3-hydroxybutyrate]", "values": [
      {"measurement": "bone mineral content in post-test compared to placebo", "setting": "[2]", "value": "increased bone mineral content"},
      {"measurement": "changes in body fat compared with placebo", "setting": "[2]", "value": "did not alter"},
      {"measurement": "changes in lean body mass compared with placebo", "setting": "[2]", "value": "did not alter"},
      {"measurement": "increase in mean power output compared with placebo drink", "setting": "[3]; day 18 of training period", "value": "~15", "unit": "%"},
      {"measurement": "average power in 30 minute time trial versus placebo group", "setting": "[3]; end of 120 minute constant-load endurance session, day 18", "value": "significantly higher"},
      {"measurement": "daily energy intake from week 1 to week 3", "setting": "[4]", "value": "spontaneously increased"},
      {"measurement": "endurance performance", "setting": "[5]", "value": "improve endurance performance"},
      {"measurement": "decline in maximum (peak) heart rate from pre-test, versus placebo", "setting": "[6]", "value": "significantly less"},
      {"measurement": "circulating levels of (R)-3-hydroxybutyrate in the blood", "setting": "[1]; in vivo", "value": "high circulating levels"},
      {"measurement": "level of uptake in the gut", "setting": "[1]; in vivo", "value": "surprisingly high level of uptake"},
      {"measurement": "blood β-hydroxybutyrate levels versus placebo drink", "setting": "[7]", "value": "significantly higher"},
      {"measurement": "urinary total nocturnal noradrenaline excretion", "setting": "noradrenaline", "value": "stable at baseline levels"},
      {"measurement": "leptin levels compared to placebo", "setting": "leptin; all timepoints after the pretest", "value": "higher at all timepoints"},
      {"measurement": "leptin levels from pretest to posttest", "setting": "leptin; significantly dropped in placebo group", "value": "constant"},
      {"measurement": "workload effected during each single training session versus placebo", "setting": "[8]; from day 20", "value": "higher"},
      {"measurement": "training load versus placebo", "setting": "[8]; week 3", "value": "definitely higher"},
      {"measurement": "training load versus placebo", "setting": "[8]; weeks 1 and 2", "value": "no difference"},
      {"measurement": "decline in submaximal heart rate vs. pre-test, versus placebo", "setting": "[9]", "value": "significantly less"},
      {"measurement": "increase in power output from pre-test", "setting": "[10]; following 1 week of tapering after 3-week training overload period, not increased in placebo group", "value": "~8", "unit": "%"},
      {"measurement": "average power during 30 minute time trial versus placebo", "setting": "[10]; post-test and follow-up 1", "value": "significantly higher"}
    ]}
  ]
}
